From ChEMBL document CHEMBL1201862, “PubChem BioAssay data set” (2004)
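Step 1: Grow cells in 96-well plates. Step 2: Expose to compound for 48 hours at 5 concentrations. Step 3: Interpolate endpoints linearly; if unreached, use highest concentration. GI50: concentration for 50% inhibition of growth.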 The source made the active and inactive calls. Rule as the data show it: active = GI50 up to about 1.1 µM and inactive = higher.

What was measured:
Assay in all cases: NCI-60 cell line screen, 48 h
[1] = tested on: BT-549
[2] = tested on: UACC-62
[3] = tested on: TK-10
[4] = tested on: SK-MEL-28
[5] = tested on: SNB-19
[6] = tested on: OVCAR-3
[7] = tested on: HOP-92
[8] = tested on: HCT-116
[9] = tested on: OVCAR-5
[10] = tested on: OVCAR-4
[11] = tested on: U-251
[12] = tested on: UACC-257
[13] = tested on: UO-31
[14] = tested on: SNB-75
[15] = tested on: RPMI-8226
[16] = tested on: NCI-H23
[17] = tested on: HCC 2998
[18] = tested on: HOP-62
[19] = tested on: NCI-H522

Measured: GI50

CC(C)(C)N1C(=O)[N-]/[N+](=C(/C(c2ccccc2)=[N+]2/[N-]C(=O)N(C(C)(C)C)C2=O)c2ccccc2)C1=O
inactive: [1] > 100 µM | [2] > 100 µM | [3] > 100 µM | [4] > 100 µM | [5] > 100 µM | [6] > 100 µM | [7] > 100 µM | [8] > 100 µM | [9] > 100 µM | [10] > 100 µM | [11] > 100 µM | [12] > 100 µM | [13] > 100 µM | [14] > 100 µM | [15] > 100 µM | [16] > 100 µM | [17] > 100 µM

CCC(C)N1CN(c2ccccc2)C2(CCN(CCCSc3ccc(F)cc3)CC2)C1=O (stereo not drawn)
inactive: [1] 1.66 µM | [2] 5.47 µM | [3] 3.27 µM | [4] 11.6 µM | [5] 5.52 µM | [6] 2.33 µM | [18] 2.11 µM | [8] 2.88 µM | [9] 2.1 µM | [11] 3.72 µM | [12] 2.74 µM | [13] 2.42 µM | [19] 5.97 µM | [14] 11.1 µM | [15] 2.31 µM | [16] 4.01 µM | [17] 2.04 µM

COc1cc(Br)c(OC)c2c(OC)cc(C)cc12
inactive: [1] 96.6 µM | [2] > 100 µM | [3] > 100 µM | [4] > 100 µM | [5] > 100 µM | [6] > 100 µM | [18] > 100 µM | [8] > 100 µM | [9] > 100 µM | [11] > 100 µM | [12] > 100 µM | [13] > 100 µM | [19] > 100 µM | [14] 14.3 µM | [15] 54.5 µM | [16] > 100 µM | [17] > 100 µM

COP1(=O)OCc2cnccc2O1 (stereo not drawn)
inactive: [1] > 100 µM | [2] > 100 µM | [3] > 100 µM | [4] > 100 µM | [5] > 100 µM | [6] > 100 µM | [18] > 100 µM | [8] > 100 µM | [9] > 100 µM | [10] > 100 µM | [11] > 100 µM | [12] > 100 µM | [13] > 100 µM | [19] > 100 µM | [14] > 100 µM | [15] > 100 µM | [16] > 100 µM | [17] > 100 µM

C[C@]12CC(c3ccccc3O1)C(C#N)C(=O)N2 (stereo partly drawn)
inactive: [1] > 100 µM | [2] > 100 µM | [4] > 100 µM | [5] > 100 µM | [6] > 100 µM | [7] > 100 µM | [18] > 100 µM | [8] > 100 µM | [9] > 100 µM | [10] > 100 µM | [11] > 100 µM | [12] > 100 µM | [14] > 100 µM | [15] > 100 µM | [16] > 100 µM | [17] > 100 µM

N#Cc1sc2c(c1OC(=O)c1ccccc1)c(=O)n(-c1ccccc1)c(=S)n2-c1ccccc1
inactive: [1] 23.8 µM | [2] 19.9 µM | [3] 28.8 µM | [4] 25.7 µM | [5] 36.1 µM | [6] 28.1 µM | [18] 18.2 µM | [8] 19.9 µM | [10] 21.7 µM | [11] 20.1 µM | [12] 35.7 µM | [13] 18.3 µM | [19] 13.8 µM | [14] > 10 µM | [15] 23.6 µM | [16] 21.2 µM | [17] 25.2 µM

O=C(Nc1ccccc1C(=O)Nc1nccs1)c1ccccc1
inactive: [1] 15.1 µM | [2] 25.2 µM | [3] 25.6 µM | [4] 20.7 µM | [5] 31.9 µM | [6] 3.98 µM | [18] 16.6 µM | [8] 12.1 µM | [9] > 100 µM | [11] 6.52 µM | [12] 31 µM | [13] 7.89 µM | [19] 14.3 µM | [14] 21.1 µM | [15] 6.65 µM | [16] 65.8 µM | [17] 13.5 µM

COC[C@H](Cc1ccccc1)/N=C/c1ccccc1
inactive: [1] > 100 µM | [2] > 100 µM | [3] > 100 µM | [4] > 100 µM | [5] > 100 µM | [18] > 100 µM | [8] > 100 µM | [9] > 100 µM | [10] > 100 µM | [11] > 100 µM | [12] > 100 µM | [13] > 100 µM | [19] > 100 µM | [14] > 100 µM | [15] > 100 µM | [16] > 100 µM | [17] > 100 µM

CC(=O)[C@@H]1[C@@H](OC(=O)CCC(C)COC2OC(CO)C(O)C(O)C2O)C[C@H]2[C@@H]3CC=C4C[C@@H](OC5OC(CO)C(OC6OC(C)C(O)C(O)C6O)C(O)C5OC5OC(C)C(O)C(O)C5O)CC[C@]4(C)[C@H]3CC[C@]12C (stereo partly drawn)
inactive: [1] > 100 µM | [2] > 100 µM | [3] > 100 µM | [4] > 100 µM | [5] > 100 µM | [6] > 100 µM | [18] > 100 µM | [8] > 100 µM | [9] > 100 µM | [10] > 100 µM | [11] > 100 µM | [12] > 100 µM | [13] > 100 µM | [19] 35.2 µM | [14] > 100 µM | [15] > 100 µM | [16] > 100 µM | [17] > 100 µM

CC(=O)O[C@@H]1O[Si](C(C)(C)C)(C(C)(C)C)[C@H](C)[C@H]1C
inactive: [1] > 100 µM | [2] 83.6 µM | [3] > 100 µM | [4] > 100 µM | [5] > 100 µM | [6] 24 µM | [18] > 100 µM | [8] 29.9 µM | [9] > 100 µM | [10] > 100 µM | [11] 43.7 µM | [12] > 100 µM | [13] > 100 µM | [19] 56.6 µM | [14] 6.62 µM | [15] 45.1 µM | [16] > 100 µM | [17] 92.7 µM

O=[N+]([O-])c1cc(Cl)ccc1S(=O)(=O)c1cc(Cl)cc2c1NCCC2
inactive: [1] 56.9 µM | [2] 29.5 µM | [3] > 100 µM | [4] 35.8 µM | [5] > 100 µM | [6] 62.7 µM | [7] 54.6 µM | [18] 69.2 µM | [8] 63.1 µM | [9] > 100 µM | [10] > 100 µM | [12] 22.4 µM | [13] 49.5 µM | [14] 18.4 µM | [15] > 100 µM | [17] > 100 µM
